Reference: ChEMBL document CHEMBL6134864, “Discovery of FLT3-ITD Inhibitor Clifutinib: A Novel Biphenylacetylene Urea Derivative in Clinical Trials for the Treatment of Relapsed/Refractory FLT3-ITD+ Acute Myeloid Leukemia” (J Med Chem, 2025)
Activity calls are given as the source filed them. The rule behind the calls is not given here.

Tests used:
[1] = Half life in mouse plasma at 2 mg/kg, iv measured up to 24 hrs by LC-MS/MS analysis; format: ADME, organism-based
[2] = AUC last in mouse plasma at 2 mg/kg, iv measured up to 24 hrs by LC-MS/MS analysis; format: ADME, organism-based
[3] = Toxicity in NOD/SCID mouse assessed as observable signs of toxicity at 0.5 to 4.5 mg/kg/day, po administered for 21 days and measured for 31 days post dose; format: organism-based; conditions: in vivo, 504 h, dose 0.5-4.5 mg/kg/day, time 21 day
[4] = Clearance in mouse plasma at 2 mg/kg, iv measured up to 24 hrs by LC-MS/MS analysis; format: ADME, organism-based
[5] = Toxicity in NOD/SCID mouse assessed as effect on body weight loss at 0.5 to 4.5 mg/kg/day, po administered for 21 days and measured for 31 days post dose; format: organism-based; conditions: in vivo, 504 h, dose 0.5-4.5 mg/kg/day, time 21 day
[6] = tested on: Receptor-type tyrosine-protein kinase FLT3 (Homo sapiens), P36888 [UNDEFINED MUTATION]; assay: Inhibition of FLT3 in human MV4-11 cells harbouring FLT3-ITD mutant assessed as inhibition of FLT3 phosphorylation level measured after 2 hrs by Western blot analysis; format: cell-based; conditions: dose 1-1000 nM
A2780 = assay: cells; conditions: Homo sapiens, A2780, 72 h
Description: Antiproliferative activity against human A2780 cells assessed as inhibition of cell growth incubated for 72 hrs by celltiter-glo luminescent cell viability assay

[7] = Tmax in monkey plasma at 5 mg/kg, po measured up to 24 hrs by LC-MS/MS analysis; format: ADME, organism-based, Macaca mulatta; conditions: rhesus monkey
[8] = Cmax in NOD/SCID mouse plasma xenografted with human MV4-11 cells at 4.5 mg/kg, po measured up to 24 hrs by LC-MS/MS analysis; format: ADME, organism-based
[9] = Cmax in mouse plasma at 10 mg/kg, po measured up to 24 hrs by LC-MS/MS analysis; format: ADME, organism-based
MV4-11 = assay: Induction of apoptosis in human MV4-11 cells harbouring FLT3-ITD mutant measured after 48 to 72 hrs by annexin V and PI staining based flow cytometry analysis; format: functional, cell-based; conditions: dose 1-100 nM, time 48-72 hrs
[10] = Oral bioavailability in mouse plasma at 10 mg/kg measured up to 24 hrs by LC-MS/MS analysis; format: ADME, organism-based
[11] = AUC (0 to t) in NOD/SCID mouse plasma xenografted with human MV4-11 cells at 4.5 mg/kg, po measured up to 24 hrs by LC-MS/MS analysis; format: ADME, organism-based
BaF3 = assay: Antiproliferative activity against mouse BaF3 cells harbouring FLT3-ITD-N676D mutant assessed as inhibition of cell growth incubated for 72 hrs by celltiter-glo luminescent cell viability assay; format: functional, cell-based; conditions: BaF3, 72 h
[12] = Cmax in mouse plasma at 2 mg/kg, iv measured up to 24 hrs by LC-MS/MS analysis; format: ADME, organism-based
RS4-11 = assay: cells; conditions: Homo sapiens, RS4-11, 72 h
Description: Antiproliferative activity against human RS4;11 cells assessed as inhibition of cell growth incubated for 72 hrs by celltiter-glo luminescent cell viability assay

SW-620 = assay: cells; conditions: Homo sapiens, SW-620, 72 h
Description: Antiproliferative activity against human SW620 cells assessed as inhibition of cell growth incubated for 72 hrs by celltiter-glo luminescent cell viability assay

[13] = AUC last in monkey plasma at 1 mg/kg, iv measured up to 24 hrs by LC-MS/MS analysis; format: ADME, organism-based, Macaca mulatta; conditions: rhesus monkey, in vivo
NCI-H460 = assay: cells; conditions: Homo sapiens, NCI-H460, 72 h
Description: Antiproliferative activity against human NCI-H460 cells assessed as inhibition of cell growth incubated for 72 hrs by celltiter-glo luminescent cell viability assay

[14] = Tmax in NOD/SCID mouse tumor xenografted with human MV4-11 cells at 0.5 mg/kg, po measured up to 24 hrs by LC-MS/MS analysis; format: ADME, organism-based, Neoplasm
[15] = biological target: Proto-oncogene tyrosine-protein kinase receptor Ret (Homo sapiens, UniProt P07949, Y791F); assay: Inhibition of human RET Y791F mutant by biochemical kinase binding assay
[16] = biological target: Receptor-type tyrosine-protein kinase FLT3 (Homo sapiens) (UniProt P36888); assay: Inhibition of FLT3 in human MV4-11 cells harbouring FLT3-ITD mutant assessed as effect on STAT5 protein level at 1 to 1000 nM measured after 2 hrs by Western blot analysis; format: cell-based; conditions: dose 1-1000 nM
CAKI-1 = assay: cells; conditions: Homo sapiens, CAKI-1, 72 h
Description: Antiproliferative activity against human CAKI-1 cells assessed as inhibition of cell growth incubated for 72 hrs by celltiter-glo luminescent cell viability assay

[17] = Half life in mouse plasma at 10 mg/kg, po measured up to 24 hrs by LC-MS/MS analysis; format: ADME, organism-based
[18] = Volume of distribution at steady state in monkey plasma at 1 mg/kg, iv measured up to 24 hrs by LC-MS/MS analysis; format: ADME, organism-based, Macaca mulatta; conditions: rhesus monkey, read-out: Vdss
[19] = AUC (0 to t) in NOD/SCID mouse tumor xenografted with human MV4-11 cells at 4.5 mg/kg, po measured up to 24 hrs by LC-MS/MS analysis; format: ADME, organism-based, Neoplasm
[20] = Tmax in NOD/SCID mouse plasma xenografted with human MV4-11 cells at 0.5 mg/kg, po measured up to 24 hrs by LC-MS/MS analysis; format: ADME, organism-based
[21] = Half life in dog plasma at 5 mg/kg, po measured up to 24 hrs by LC-MS/MS analysis; format: ADME, organism-based, Canis lupus familiaris
[22] = Cmax in NOD/SCID mouse plasma xenografted with human MV4-11 cells at […], po measured up to 24 hrs by LC-MS/MS analysis; format: ADME, organism-based; conditions: dose 1.5 mg/kg
[23] = AUC last in dog plasma at 5 mg/kg, po measured up to 24 hrs by LC-MS/MS analysis; format: ADME, organism-based, Canis lupus familiaris
[24] = biological target: Mast/stem cell growth factor receptor Kit (Homo sapiens, UniProt P10721); assay: Inhibition of human KIT by biochemical kinase binding assay
[25] = Half life in NOD/SCID mouse plasma xenografted with human MV4-11 cells at […], po measured up to 24 hrs by LC-MS/MS analysis; format: ADME, organism-based; conditions: dose 1.5 mg/kg
[26] = Cmax in monkey plasma at 5 mg/kg, po measured up to 24 hrs by LC-MS/MS analysis; format: ADME, organism-based, Macaca mulatta; conditions: rhesus monkey
[27] = Half life in NOD/SCID mouse plasma xenografted with human MV4-11 cells at 4.5 mg/kg, po measured up to 24 hrs by LC-MS/MS analysis; format: ADME, organism-based
[28] = tested on: Receptor-type tyrosine-protein kinase FLT3 (Homo sapiens), P36888 [UNDEFINED MUTATION]; assay: Inhibition of FLT3 in human MV4-11 cells harbouring FLT3-ITD mutant assessed as inhibition of AKT phosphorylation level measured after 2 hrs by Western blot analysis; format: cell-based; conditions: dose 1-1000 nM
MOLM-13 [29] = assay: Antitumor activity against human MOLM-13 cells xenografted in NOD/SCID mouse model assessed as tumor growth inhibition at […], po by caliper analysis relative to control; format: functional; conditions: dose 1.5 mg/kg/day, read-out: TGI
MCF7 = assay: cells; conditions: Homo sapiens, MCF7, 72 h
Description: Antiproliferative activity against human MCF7 cells assessed as inhibition of cell growth incubated for 72 hrs by celltiter-glo luminescent cell viability assay

MOLM-13 [30] = assay: Antitumor activity against human MOLM-13 cells xenografted in NOD/SCID mouse model assessed as tumor growth inhibition at […], po in presence of Ara-C by caliper analysis relative to control; format: functional; conditions: dose 1.5 mg/kg/day, read-out: TGI
[31] = Tmax in dog plasma at 5 mg/kg, po measured up to 24 hrs by LC-MS/MS analysis; format: ADME, organism-based, Canis lupus familiaris

Sequence of Receptor-type tyrosine-protein kinase FLT3 (Homo sapiens), P36888 [UNDEFINED MUTATION] (P36888 whole entry, looked up, stated change not applied): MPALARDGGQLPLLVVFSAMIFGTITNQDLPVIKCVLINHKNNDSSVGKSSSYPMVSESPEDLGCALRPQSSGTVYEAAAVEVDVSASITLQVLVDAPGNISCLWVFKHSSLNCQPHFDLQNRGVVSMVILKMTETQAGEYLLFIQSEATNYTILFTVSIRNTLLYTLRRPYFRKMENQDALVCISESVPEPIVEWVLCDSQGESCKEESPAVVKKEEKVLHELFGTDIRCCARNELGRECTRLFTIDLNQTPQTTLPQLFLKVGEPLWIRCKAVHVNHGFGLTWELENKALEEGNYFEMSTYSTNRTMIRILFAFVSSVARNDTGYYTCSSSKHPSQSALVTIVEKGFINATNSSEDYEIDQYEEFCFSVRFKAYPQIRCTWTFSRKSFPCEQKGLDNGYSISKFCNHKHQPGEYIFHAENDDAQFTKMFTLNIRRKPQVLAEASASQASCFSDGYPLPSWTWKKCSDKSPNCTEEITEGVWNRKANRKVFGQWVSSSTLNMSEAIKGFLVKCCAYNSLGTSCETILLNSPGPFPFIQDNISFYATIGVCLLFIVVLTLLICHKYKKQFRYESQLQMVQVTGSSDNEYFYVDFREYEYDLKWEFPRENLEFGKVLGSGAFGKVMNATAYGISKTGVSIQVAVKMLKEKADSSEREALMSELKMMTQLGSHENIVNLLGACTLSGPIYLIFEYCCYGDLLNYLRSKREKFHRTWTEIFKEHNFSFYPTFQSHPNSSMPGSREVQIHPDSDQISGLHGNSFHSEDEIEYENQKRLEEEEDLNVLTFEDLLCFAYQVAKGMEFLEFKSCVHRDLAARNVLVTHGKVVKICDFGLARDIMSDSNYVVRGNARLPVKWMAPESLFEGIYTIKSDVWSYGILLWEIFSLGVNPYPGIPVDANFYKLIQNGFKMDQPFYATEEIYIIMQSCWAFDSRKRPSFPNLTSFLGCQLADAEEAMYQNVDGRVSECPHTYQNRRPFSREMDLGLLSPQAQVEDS
Sequence of Receptor-type tyrosine-protein kinase FLT3 (Homo sapiens) (P36888 whole entry): as the sequence (P36888 whole entry, looked up, stated change not applied) above
Sequence of Mast/stem cell growth factor receptor Kit (P10721 whole entry): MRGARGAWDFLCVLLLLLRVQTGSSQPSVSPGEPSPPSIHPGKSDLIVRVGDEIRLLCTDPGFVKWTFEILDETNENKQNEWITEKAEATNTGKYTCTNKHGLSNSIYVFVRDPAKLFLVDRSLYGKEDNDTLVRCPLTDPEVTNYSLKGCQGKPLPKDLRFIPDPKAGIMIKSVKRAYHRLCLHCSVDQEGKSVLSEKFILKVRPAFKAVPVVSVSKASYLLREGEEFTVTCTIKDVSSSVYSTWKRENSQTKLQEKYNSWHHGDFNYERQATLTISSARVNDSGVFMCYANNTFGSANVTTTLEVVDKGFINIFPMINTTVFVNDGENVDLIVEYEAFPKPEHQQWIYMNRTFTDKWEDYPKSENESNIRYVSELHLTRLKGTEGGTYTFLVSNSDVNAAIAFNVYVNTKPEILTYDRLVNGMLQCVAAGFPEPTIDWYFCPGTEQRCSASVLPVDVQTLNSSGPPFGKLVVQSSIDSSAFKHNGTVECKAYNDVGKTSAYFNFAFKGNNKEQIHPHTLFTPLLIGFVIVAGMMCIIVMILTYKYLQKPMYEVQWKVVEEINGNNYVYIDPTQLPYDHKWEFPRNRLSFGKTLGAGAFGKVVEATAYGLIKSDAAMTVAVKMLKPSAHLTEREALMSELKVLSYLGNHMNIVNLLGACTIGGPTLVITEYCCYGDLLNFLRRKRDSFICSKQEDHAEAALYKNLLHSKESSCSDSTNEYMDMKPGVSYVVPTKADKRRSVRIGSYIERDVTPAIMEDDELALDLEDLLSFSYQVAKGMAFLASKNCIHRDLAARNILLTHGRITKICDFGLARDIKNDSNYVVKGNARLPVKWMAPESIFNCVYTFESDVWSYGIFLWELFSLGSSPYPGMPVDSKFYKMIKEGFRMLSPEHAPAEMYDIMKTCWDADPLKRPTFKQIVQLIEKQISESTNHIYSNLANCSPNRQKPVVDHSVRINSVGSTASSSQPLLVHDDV
Sequence of Proto-oncogene tyrosine-protein kinase receptor Ret (P07949 29-1114 Y791F limits assumed): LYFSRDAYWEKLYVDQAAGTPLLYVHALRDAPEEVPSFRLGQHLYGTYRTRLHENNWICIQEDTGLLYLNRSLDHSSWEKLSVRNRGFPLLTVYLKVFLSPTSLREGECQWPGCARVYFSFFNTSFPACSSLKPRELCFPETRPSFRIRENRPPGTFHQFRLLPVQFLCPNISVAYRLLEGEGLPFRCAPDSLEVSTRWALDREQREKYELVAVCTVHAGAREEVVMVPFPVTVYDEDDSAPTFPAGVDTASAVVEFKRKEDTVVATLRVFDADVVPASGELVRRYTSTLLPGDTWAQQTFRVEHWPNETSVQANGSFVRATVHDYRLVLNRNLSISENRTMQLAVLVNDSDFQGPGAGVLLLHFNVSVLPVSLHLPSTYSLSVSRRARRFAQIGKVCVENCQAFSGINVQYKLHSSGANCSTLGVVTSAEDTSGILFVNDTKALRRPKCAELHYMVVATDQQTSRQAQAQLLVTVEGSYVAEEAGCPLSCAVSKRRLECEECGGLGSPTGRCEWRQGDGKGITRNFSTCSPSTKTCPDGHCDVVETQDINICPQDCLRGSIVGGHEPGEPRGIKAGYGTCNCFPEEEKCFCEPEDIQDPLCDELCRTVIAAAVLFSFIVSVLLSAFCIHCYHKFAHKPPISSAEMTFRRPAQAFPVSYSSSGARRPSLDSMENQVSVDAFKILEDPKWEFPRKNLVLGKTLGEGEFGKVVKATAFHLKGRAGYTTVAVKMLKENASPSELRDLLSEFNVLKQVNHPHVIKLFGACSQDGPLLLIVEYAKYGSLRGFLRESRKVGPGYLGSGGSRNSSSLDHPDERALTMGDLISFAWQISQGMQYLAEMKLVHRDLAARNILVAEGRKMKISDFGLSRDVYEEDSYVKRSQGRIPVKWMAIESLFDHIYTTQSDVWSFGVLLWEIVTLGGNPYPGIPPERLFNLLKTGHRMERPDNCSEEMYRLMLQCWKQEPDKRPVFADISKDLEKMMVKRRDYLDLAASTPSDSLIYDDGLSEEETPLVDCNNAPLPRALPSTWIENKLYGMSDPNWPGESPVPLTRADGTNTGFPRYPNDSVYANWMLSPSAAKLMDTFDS

For `CC(C)(C)c1cc(NC(=O)Nc2ccc(C#Cc3ccc(OCCCN4CCOCC4)cc3)cc2)no1`, the half-life [1] was 1.17 h, the AUC(0-t) at 24 h [2] was 1740 ng·h/mL and the Activity [3] was “Non-toxic”. For the same compound, the clearance [4] was 18.9 mL/min/kg, the Activity [5] was “Non-toxic” and the inhibition [6] was “Dose-dependent-effect”. For the same compound, the IC50 (A2780) was 7.2 µM, the Tmax [7] was 4 h and the Cmax [8] was 199 ng/mL. For the same compound, the Cmax [9] was 1660 ng/mL, the Activity (MV4-11) was “Dose-dependent-effect” and the bioavailability [10] was 50.3%. For the same compound, the AUC(0-t) at 24 h [11] was 908 ng·h/mL, the IC50 (BaF3) was 0.0069 µM and the Cmax [12] was 1820 ng/mL. The IC50 (RS4-11) was > 10 µM, the IC50 (SW-620) was > 10 µM and the AUClast [13] was 10100 ng·h/mL. It also gave an IC50 (NCI-H460) of 7.8 µM, a Tmax [14] of 3 h and an IC50 [15] of 0.119 µM. The inhibition [16] was “inactive”, the IC50 (CAKI-1) was > 10 µM and the half-life [17] was 1.73 h. It also gave a Vd [18] of 0.996 L/kg, an AUC(0-t) at 24 h [19] of 4700 ng·h/mL and a Tmax [20] of 1 h. It also gave a half-life [21] of 7.41 h, a Cmax at 24 h [22] of 52.8 ng/mL and an AUC(0-t) at 24 h [23] of 4870 ng·h/mL. It also gave an IC50 [24] of 1.79 µM, a half-life at 24 h [25] of 3.34 h and a Cmax [26] of 1410 ng/mL. For the same compound, the half-life [27] was 3.82 h, the inhibition [28] was “Dose-dependent-effect” and the inhibition in vivo at […] (MOLM-13 [29]) was 52%. For the same compound, the IC50 (MCF7) was > 10 µM, the inhibition in vivo at […] (MOLM-13 [30]) was 80% and the Tmax [31] was 1.67 h.
